Data as given in article PMC10795798 (Journal of the American Chemical Society, 2023).

Molecular target: T1, CYP199A4 (Rhodopseudomonas palustris, UniProt Q2IU02)
T1 sequence (Q2IU02 1-410): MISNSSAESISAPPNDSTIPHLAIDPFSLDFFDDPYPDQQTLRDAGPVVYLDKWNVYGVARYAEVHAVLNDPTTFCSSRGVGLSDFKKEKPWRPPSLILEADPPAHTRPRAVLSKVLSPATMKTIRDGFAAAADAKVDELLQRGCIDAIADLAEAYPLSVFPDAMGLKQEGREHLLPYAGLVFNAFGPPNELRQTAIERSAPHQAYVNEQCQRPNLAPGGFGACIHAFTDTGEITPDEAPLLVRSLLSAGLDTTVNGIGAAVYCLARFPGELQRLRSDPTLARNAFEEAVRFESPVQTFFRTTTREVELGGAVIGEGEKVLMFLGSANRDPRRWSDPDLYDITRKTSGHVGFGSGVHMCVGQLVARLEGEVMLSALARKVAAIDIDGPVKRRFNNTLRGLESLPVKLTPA
Test: UV-vis spectral titration
Format: binding

## CC(=O)c1ccc(C(=O)O)cc1 [4-acetylbenzoic acid]
  Kd: 140 ± 5 µM
